In general, IC50 refers to the concentration at which inhibition is half-maximal.

Consider five compounds from patent US12162879B2, “Pyridopyrimidine derivative, preparation method therefor and medical use thereof” (Jiangsu Hengrui Medicine Co., Ltd., priority 2018, dated 2024).

In one data set the target is CYP2D6 (Homo sapiens (Human), UniProt P10635). The experiment in a line: Inhibition of enzyme activity of CYP2D6 in human liver microsome. The conditions noted are these: dextromethorphan probe substrate, 30 minutes, read-out: IC50 of the inhibition effect on CYP2D6 enzyme. Format: in vitro ADME. The procedure: The effect of the compounds of the present invention on the enzyme activity of CYP2D6 in human liver microsome was determined by the following experimental method.
• 1. Phosphate buffer solution (PBS); • 2. NADPH (Sigma N-1630); • 3. Human liver microsome (Corning Gentest); • 4. ABI QTrap 4000 liquid chromatograph/mass spectrometer (AB Sciex); • 5. Inertsil C8-3 column, 4.6×50 mm, 5 μm (Dikma Technologies Inc., USA); and • 6. CYP probe substrate (20 μM dextromethorphan, SIGMA Q0750) and positive control inhibitor (quinidine, SIGMA D9684). II. Experimental Procedures
100 mM PBS buffer was formulated, which was then used to formulate 2.5 mg/ml human microsome solution and 5 mM NADPH solution. The 5× concentration of the compound working solution was diluted with PBS in gradients (150, 50, 15, 5, 1.5, 0.15, 0.015, 0 μM). The 5× concentration of quinidine working solution was diluted with PBS in gradients (150, 50, 15, 5, 1.5, 0.15, 0.015, 0 μM). Dextromethorphan working solution was diluted with PBS to a concentration of 20 μM.
(§1) 20 μl of 2.5 mg/ml microsome solution, 20 μl of 20 μM dextromethorphan working solution, 20 μl of MgCl2 solution and 20 μl of the compound working solution (150, 50, 15, 5, 1.5, 0.15, 0.015, 0 μM, different reaction systems for each concentration) were mixed well. For the positive control group, the compound was replaced with the same concentration of quinidine. The mixture together with 5 mM NADPH solution was pre-incubated at 37° C. for 5 minutes. After 5 minutes, 20 μl of NADPH was added to each well, the reaction was initiated, and the plate was incubated for 30 minutes. All the incubated samples were present in duplicate. After 30 minutes, 250 μl of acetonitrile containing internal standard (100 ng/ml camptothecin) was added to all samples, mixed well, shaken at 800 rpm for 10 minutes, and then centrifuged at 3700 rpm for 10 minutes. 80 μl of the supernatant was taken and analyzed by LC-MS/MS.
The data was calculated by Graphpad Prism to obtain the IC50 values of the inhibition effect of the present compounds on CYP2D6 enzyme, which are shown in Table 3.
A general note: Liver microsomes are vesicles of endoplasmic reticulum, rich in cytochrome P450 enzymes.

Data set [1] has as its target CYP3A4 (testosterone metabolite site) (Homo sapiens (Human), UniProt P08684). The experiment in a line: Inhibition of enzyme activity of testosterone metabolite site of CYP3A4 in human liver microsomes. The data set is classed as in vitro ADME. The conditions noted are these: human liver microsome, testosterone probe substrate, 30 minutes. Here is the method:
The effect of the compounds of the present invention on the enzyme activity of testosterone metabolite site of CYP3A4 in human liver microsomes was determined by the following experimental method.
• 1. Phosphate buffer solution (PBS); • 2. NADPH (Sigma N-1630); • 3. Human liver microsome (Corning Gentest); • 4. ABI QTrap 4000 liquid chromatograph/mass spectrometer (AB Sciex); • 5. Inertsil C8-3 column, 4.6×50 mm, 5 μm (Dikma Technologies Inc., USA); and • 6. CYP probe substrate (testosterone/100 μM, […]) and positive control inhibitor (ketoconazole, Dr. Ehrenstorfer GmbH, C17322500). II. Experimental Procedures
100 mM PBS buffer was formulated, which was then used to formulate 2.5 mg/ml human microsome solution and 5 mM NADPH solution. The 5× concentration of the compound working solution was diluted with PBS in gradients (150, 50, 15, 5, 1.5, 0.15, 0.015, 0 μM). The 5× concentration of ketoconazole working solution was diluted with PBS in gradients (150, 50, 15, 5, 1.5, 0.15, 0.015, 0 μM). […] working solution was diluted with PBS to a concentration of 50 μM.
as §1, with “of 50” for “of 20”, “μM testosterone” for “μM dextromethorphan”, “of ketoconazole.” for “of quinidine.”
The data was calculated by Graphpad Prism to obtain the IC50 values of the compounds on the testosterone metabolite site of CYP3A4, which are shown in Table 4.

Sequence of CYP2D6 (P10635 whole entry): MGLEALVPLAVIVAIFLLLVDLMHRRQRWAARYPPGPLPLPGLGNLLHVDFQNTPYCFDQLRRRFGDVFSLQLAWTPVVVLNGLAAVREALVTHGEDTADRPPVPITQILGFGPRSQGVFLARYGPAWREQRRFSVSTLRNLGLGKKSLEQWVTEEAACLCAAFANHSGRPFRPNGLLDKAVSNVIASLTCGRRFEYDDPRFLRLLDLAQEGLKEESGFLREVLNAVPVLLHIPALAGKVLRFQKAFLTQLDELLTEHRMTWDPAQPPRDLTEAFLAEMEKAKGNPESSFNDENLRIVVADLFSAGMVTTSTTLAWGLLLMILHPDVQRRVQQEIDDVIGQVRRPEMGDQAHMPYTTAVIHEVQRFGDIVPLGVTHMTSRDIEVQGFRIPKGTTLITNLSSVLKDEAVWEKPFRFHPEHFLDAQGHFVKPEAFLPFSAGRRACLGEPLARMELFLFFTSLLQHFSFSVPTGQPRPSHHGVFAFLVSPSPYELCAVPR
Sequence of CYP3A4 (testosterone metabolite site) (P08684 whole entry): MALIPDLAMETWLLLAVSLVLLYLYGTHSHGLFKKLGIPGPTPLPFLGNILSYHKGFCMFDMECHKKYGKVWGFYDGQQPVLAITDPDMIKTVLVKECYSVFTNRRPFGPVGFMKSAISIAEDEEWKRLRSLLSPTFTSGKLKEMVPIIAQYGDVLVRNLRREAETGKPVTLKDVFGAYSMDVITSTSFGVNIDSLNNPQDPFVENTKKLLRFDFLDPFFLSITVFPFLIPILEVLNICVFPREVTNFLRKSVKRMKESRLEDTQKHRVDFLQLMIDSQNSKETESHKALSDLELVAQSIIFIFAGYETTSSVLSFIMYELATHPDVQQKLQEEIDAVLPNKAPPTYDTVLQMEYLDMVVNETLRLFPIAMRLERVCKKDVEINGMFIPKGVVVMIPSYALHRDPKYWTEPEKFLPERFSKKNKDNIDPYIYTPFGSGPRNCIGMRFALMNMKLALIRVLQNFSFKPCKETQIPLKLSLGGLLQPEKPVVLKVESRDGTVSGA

Take `CCCC[C@](C)(CO)Nc1nc(N)nc2cc(-c3ccc(CN4CCCC4)nc3)cnc12` [Example 2, (R)-2-((2-Amino-7-(6-(pyrrolidin-1-ylmethyl)pyridin-3-yl)pyrido[3,2-d]pyrimidin-4-yl)amino)-2-methylhexan-1-ol]: the concentration for half-maximal inhibition (IC50) at CYP2D6 is greater than 30 µM.

Turning to `CCCC[C@](C)(CO)Nc1nc(N)nc2cc(-c3ccc(C4CCN(C)CC4)nc3)cnc12` [Example 4, (R)-2-((2-Amino-7-(6-(1-methylpiperidin-4-yl)pyridin-3-yl)pyrido[3,2-d]pyrimidin-4-yl)amino)-2-methylhexan-1-ol], the half-inhibitory concentration (IC50) on CYP2D6 is greater than 30 µM; in data set [1] it was 16 µM.

With `CCCCC(C)(CO)Nc1nc(N)nc2cc(-c3ccc(CN4CCN(C)CC4)nc3)cnc12` (stereo not drawn) [Example 5, 2-((2-Amino-7-(6-((4-methylpiperazin-1-yl)methyl)pyridin-3-yl)pyrido[3,2-d]pyrimidin-4-yl)amino)-2-methylhexan-1-ol], the IC50 at CYP2D6 was greater than 30 µM; in data set [1], 8.3 µM.

For `CCCC[C@](C)(CO)Nc1nc(N)nc2cc(-c3ccc(CN4CCN(C)CC4)nc3)cnc12` [Example 6, (R)-2-((2-Amino-7-(6-((4-methylpiperazin-1-yl)methyl)pyridin-3-yl)pyrido[3,2-d]pyrimidin-4-yl)amino)-2-methylhexan-1-ol], the IC50 (on CYP2D6; in data set [1]) was greater than 30 µM throughout.

With `CCCC[C@](C)(CO)Nc1nc(N)nc2cc(-c3cnc(C4CCN(C)CC4)nc3)cnc12` [Example 8, (R)-2-((2-Amino-7-(2-(1-methylpiperidin-4-yl)pyrimidin-5-yl)pyrido[3,2-d]pyrimidin-4-yl)amino)-2-methylhexan-1-ol], the IC50 (on CYP2D6; in data set [1]) was greater than 30 µM each time.
